Data set [1] has as its system SKOV-3 human ovarian adenocarcinoma xenograft. On the set-up: species or system CB17 SCID mice. Particulars: mouse, in vivo.
Data set [2] deals with OVCAR-5 human ovarian adenocarcinoma xenograft. On the set-up: species or system CB17 SCID mice. Conditions: mouse, in vivo.
In data set [3] the test system is CB17 SCID mice. Particulars: both, mouse, in vivo, ip.
A short description of data set [4]: in vivo. Conditions: both, CB17 SCID, mouse, ip.

We go through one compound from publication PMC7281072 (Cancers, 2020).

Each structure is given as a SMILES string.
Throughout, for MST (mean survival time): test concentration or dose not given here.
Throughout, for TI% (Tumor Inhibition): test concentration or dose not given here.

On to `NC(Cc1ccc(N(CCCl)CCCl)cc1)C(=O)O` [L-PAM, 2-amino-3-(4-(bis (2-chloroethyl)amino)phenyl) propanoic acid, reference compound], for which, in data set [1], the “Median Overall Survival (OS)” value is 49 days, the “Progression Free Survival (PFS)” value worked out at 0 days, the “Response Rate (RR)” value is listed as 0% and the “antitumor activity (in words)” value is “no significant antitumor activity”. Further, in data set [1] (ip), the “Cures (mice alive for 120 days after tumor inoculation)” value is on record as 0/5, the “MST (mean survival time)” value was 48.5 ± 2.3 days, the “T/C% (mean survival time of treated versus saline controls)” value was 119.7% and the “TI% (Tumor Inhibition)” value is recorded as 10.5%. In data set [2], the “Median Overall Survival (OS)” value was found to be 60 days, the “Progression Free Survival (PFS)” value worked out at 0 days, the “Response Rate (RR)” value worked out at 0% and the “antitumor activity (in words)” value is “no significant antitumor activity”. Also, in data set [2] (ip), the “Cures (mice alive for 120 days after tumor inoculation)” value was 0/5, the “MST (mean survival time)” value came out at 61.0 ± 4.3 days, the “T/C% (mean survival time of treated versus saline controls)” value stood at 120.8% and the “TI% (Tumor Inhibition)” value is listed as 24.5%. The LD10 in data set [3] is 14 mg/kg. The compound also came in with an LD50 in data set [4] of 20.8 mg/kg.
